Data on three compounds can be found in patent US20250302821A1, “SYNERGISTIC ANTIFUNGAL COMPOSITION AND METHOD” (ST. JUDE CHILDREN'S RESEARCH HOSPITAL, INC., priority 2022, published 2025).

For experiment [1], the system named is fungi. In words: fungicidal activity of NK1-antagonists alone. The class given is cell-based. To be noted: NK1-antagonist alone, at higher concentrations.
The subject of experiment [2] is resistant Candida auris strains. To be noted: with fluconazole, voriconazole, itraconazole, cited from earlier work.

As for `C[C@@H](OC[C@@]1(c2ccccc2)CC[C@]2(CCC(=O)N2)CN1)c1cc(C(F)(F)F)cc(C(F)(F)F)c1` [rolapitant, (5S,8S)-8-[[(1R)-1-[3,5-bis(trifluoromethyl)phenyl]ethoxy]methyl]-8-phenyl-1,9-diazaspiro[4. 5]decan-2-one], the independent fungicidal activity entry in experiment [1] is “fungicidal activity”.

Consider `Cc1ccccc1-c1cc(N2CCN(C)CC2)ncc1N(C)C(=O)C(C)(C)c1cc(C(F)(F)F)cc(C(F)(F)F)c1` [netupitant, 2-[3,5-bis(trifluoromethyl)phenyl]-N, 2-dimethyl-N-[4-(2-methylphenyl)-6-(4-methylpiperazin-1-yl)pyridin-3-yl]propanamide], for which, in experiment [1], the independent fungicidal activity result is listed as “fungicidal activity”.

In the case of `C[C@@H](O[C@H]1OCCN(Cc2nc(=O)[nH][nH]2)[C@H]1c1ccc(F)cc1)c1cc(C(F)(F)F)cc(C(F)(F)F)c1` [aprepitant, 5-[[(2R,3S)-2-[(1R)-1-[3,5-bis(trifluoromethyl)phenyl]ethoxy]-3-(4-fluorophenyl)-4-morpholinyl]methyl]-1,2-dihydro-3H-1,2,4-triazol-3-one], the “synergistic enhancement of triazole antifungal activity” value in experiment [2] (C. auris) is given as “synergistically enhance the activity”. The “restoration of triazole susceptibility” value in experiment [2] (several resistant Candida auris strains) was “restore fluconazole-, voriconazole-, and itraconazole-susceptibility”.
